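Grown in 96-well plates, cells were treated for 48 hours with each compound at five concentrations. Insufficient inhibition: endpoint recorded as highest concentration tested. GI50: concentration for 50% inhibition of growth.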 Calls of active or inactive are those of the source. No stated cut-off is given here; in the data, active = GI50 up to about 1.1 µM and inactive = higher.
Columns and labels:
Experiment in all cases: NCI anticancer screen, dose series, 48 h
[1] = system: SF-268
[2] = system: RPMI-8226
[3] = system: SF-295
[4] = system: NCI-H460
[5] = system: TK-10
[6] = system: OVCAR-5
[7] = system: SK-MEL-5
[8] = system: HOP-62
[9] = system: HT-29
[10] = system: HCT-15
[11] = system: NCI-H522
[12] = system: KM-20L2
[13] = system: EKVX
[14] = system: SK-MEL-2
[15] = system: CAKI-1
[16] = system: MDA-N
[17] = system: PC-3
[18] = system: BT-549
[19] = system: Hs-578T
[20] = system: MDA-MB-435

Structure (SMILES) | GI50 [1] | GI50 [2] | GI50 [3] | GI50 [4] | GI50 [5] | GI50 [6] | GI50 [7] | GI50 [8] | GI50 [9] | GI50 [10] [µM] | GI50 [11] | GI50 [12] | GI50 [13] | GI50 [14] | GI50 [15] | GI50 [16] | GI50 [17] | GI50 [18] | GI50 [19] | GI50 [20]
CN(C)C(=O)OC(Cn1cncn1)c1ccc(Cl)cc1Cl (stereo not drawn) | > 100 µM (inactive) | > 100 µM (inactive) | > 100 µM (inactive) | > 100 µM (inactive) | > 100 µM (inactive) | > 100 µM (inactive) | > 100 µM (inactive) | > 100 µM (inactive) | > 100 µM (inactive) | > 100 | 53.5 µM (inactive) | > 100 µM (inactive) | > 100 µM (inactive) | > 100 µM (inactive) | > 100 µM (inactive) | – | – | – | – | –
CCOC(=O)/N=C(\N)SCc1ccccc1 | > 100 µM (inactive) | 34.3 µM (inactive) | > 100 µM (inactive) | > 100 µM (inactive) | > 100 µM (inactive) | > 100 µM (inactive) | > 100 µM (inactive) | > 100 µM (inactive) | > 100 µM (inactive) | > 100 | > 100 µM (inactive) | > 100 µM (inactive) | > 100 µM (inactive) | 44.6 µM (inactive) | > 100 µM (inactive) | – | – | – | – | –
O=C1c2ccccc2C(=O)c2c1oc1cc(O)c(Cl)cc21 | 10.8 µM (inactive) | 4.54 µM (inactive) | 2.8 µM (inactive) | 3.04 µM (inactive) | 20.9 µM (inactive) | 11.2 µM (inactive) | 0.299 µM (active) | 10.7 µM (inactive) | 1.95 µM (inactive) | 4.66 | 9.42 µM (inactive) | 2.67 µM (inactive) | 8.75 µM (inactive) | 1.99 µM (inactive) | 16.7 µM (inactive) | 1.75 µM (inactive) | 10.4 µM (inactive) | 4.97 µM (inactive) | 2.29 µM (inactive) | 1.81 µM (inactive)
CC(C)/C=C1\CCC(CN2CCOCC2)C1=O (stereo not drawn) | 22.9 µM (inactive) | 0.964 µM (active) | 45 µM (inactive) | 28.1 µM (inactive) | 12.9 µM (inactive) | 22.5 µM (inactive) | 18.6 µM (inactive) | > 100 µM (inactive) | 6.7 µM (inactive) | 5.85 | 2.01 µM (inactive) | 20.1 µM (inactive) | 19.1 µM (inactive) | 17.7 µM (inactive) | 4.24 µM (inactive) | – | – | – | – | –
COc1cccc(C2=NC(C(C)C)CO2)c1 (stereo not drawn) | > 100 µM (inactive) | > 100 µM (inactive) | > 100 µM (inactive) | > 100 µM (inactive) | > 100 µM (inactive) | > 100 µM (inactive) | > 100 µM (inactive) | > 100 µM (inactive) | > 100 µM (inactive) | > 100 | > 100 µM (inactive) | > 100 µM (inactive) | > 100 µM (inactive) | > 100 µM (inactive) | > 100 µM (inactive) | – | – | – | – | –
COc1ccc(C2Oc3ccc(O)cc3[C@@H]2C)cc1OC (stereo partly drawn) | > 100 µM (inactive) | 4.05 µM (inactive) | > 100 µM (inactive) | > 100 µM (inactive) | > 100 µM (inactive) | > 100 µM (inactive) | 48.5 µM (inactive) | > 100 µM (inactive) | > 100 µM (inactive) | 52.6 | 27.5 µM (inactive) | > 100 µM (inactive) | > 100 µM (inactive) | > 100 µM (inactive) | 18.9 µM (inactive) | – | – | – | – | –
O=C1C(Cl)C(c2ccc(O)cc2)N1n1cnc2ccccc2c1=O (stereo not drawn) | 45.6 µM (inactive) | 19 µM (inactive) | 98.4 µM (inactive) | 33.1 µM (inactive) | 40.6 µM (inactive) | > 79.8 µM (inactive) | 52.8 µM (inactive) | > 100 µM (inactive) | 29.4 µM (inactive) | 27.4 | 16.6 µM (inactive) | 58.9 µM (inactive) | 29.7 µM (inactive) | 26.9 µM (inactive) | 31.5 µM (inactive) | – | – | – | – | –
O=C1/C(=C/c2ccccc2)CN(C(=O)OCc2ccccc2)C/C1=C\c1ccccc1 | 13.8 µM (inactive) | – | 12.8 µM (inactive) | 21.4 µM (inactive) | 27.5 µM (inactive) | 17.4 µM (inactive) | 16.8 µM (inactive) | 32.1 µM (inactive) | 7.69 µM (inactive) | 10.9 | 6.76 µM (inactive) | 11.1 µM (inactive) | 20.7 µM (inactive) | 17.9 µM (inactive) | 18.1 µM (inactive) | 3.06 µM (inactive) | 15 µM (inactive) | 13.2 µM (inactive) | 2.47 µM (inactive) | –
O=S(=O)(c1ccccc1)C1CN2OC1(S(=O)(=O)c1ccccc1)CC2c1ccc(Br)cc1 (stereo not drawn) | 14.9 µM (inactive) | > 100 µM (inactive) | 31.8 µM (inactive) | > 100 µM (inactive) | 59 µM (inactive) | > 100 µM (inactive) | 90.6 µM (inactive) | 34.3 µM (inactive) | > 100 µM (inactive) | > 100 | 34 µM (inactive) | > 100 µM (inactive) | > 100 µM (inactive) | > 100 µM (inactive) | 60 µM (inactive) | – | – | – | – | –
COc1ccc(Br)c2c1CC(C(=O)O)CC2 (stereo not drawn) | > 100 µM (inactive) | > 100 µM (inactive) | > 100 µM (inactive) | > 100 µM (inactive) | > 100 µM (inactive) | > 100 µM (inactive) | > 100 µM (inactive) | > 100 µM (inactive) | > 100 µM (inactive) | > 100 | > 100 µM (inactive) | > 100 µM (inactive) | > 100 µM (inactive) | > 100 µM (inactive) | > 100 µM (inactive) | > 100 µM (inactive) | > 100 µM (inactive) | > 100 µM (inactive) | > 100 µM (inactive) | > 100 µM (inactive)
